The record followed here is patent US8440206B2 (priority 2006, dated 2013).

The subject of this test is CD8+ T cells. Format: cell-based, human.
Regarding ELPQWLSANR, the “#SFU” value is less than 10.
With QTVEDEARRMW the figure was 84; with RADEEQQQAL, 120.
